According to US20040006047A1, “Heterocyclic amides, a process for their preparation, compositions comprising them and their use” (priority 2001, published 2004):

melting point | SMILES
149 to 150 °C | O=C(NC1CCOCC1)c1cnccc1C(F)(F)F [Example A, N-(Tetrahydropyran-4-yl)-4-trifluoromethylnicotinamide]
248 °C (dec.) | O=C(NC1CCS(=O)(=O)CC1)c1cnccc1C(F)(F)F [Example D, N-(Tetrahydrothiopyran-4-yl)-4-trifluoromethylnicotinamide S,S-dioxide]
243 to 244 °C | O=C(NC1CC[S+]([O-])CC1)c1cnccc1C(F)(F)F (stereo not shown) [Example C, N-(Tetrahydrothiopyran-4-yl)-4-trifluoromethylnicotinamide S-oxide]
155 to 156 °C | CC1(C)OCC(NC(=O)c2cnccc2C(F)(F)F)CO1 [Example E, N-(2,2-Dimethyl-1,3-dioxa-cyclohexyl)-4-trifluoromethylnicotinamide]
